# Results reported in patent publication US4946864A, “Novel HMG-CoA reductase inhibitors” (Merck & Co., Inc., priority 1988, dated 1990).
# Biological target: T1, HMG-CoA reductase (Rattus norvegicus, UniProt P51639)
# T1 construct: from tissue
# T1 sequence (P51639 1-887): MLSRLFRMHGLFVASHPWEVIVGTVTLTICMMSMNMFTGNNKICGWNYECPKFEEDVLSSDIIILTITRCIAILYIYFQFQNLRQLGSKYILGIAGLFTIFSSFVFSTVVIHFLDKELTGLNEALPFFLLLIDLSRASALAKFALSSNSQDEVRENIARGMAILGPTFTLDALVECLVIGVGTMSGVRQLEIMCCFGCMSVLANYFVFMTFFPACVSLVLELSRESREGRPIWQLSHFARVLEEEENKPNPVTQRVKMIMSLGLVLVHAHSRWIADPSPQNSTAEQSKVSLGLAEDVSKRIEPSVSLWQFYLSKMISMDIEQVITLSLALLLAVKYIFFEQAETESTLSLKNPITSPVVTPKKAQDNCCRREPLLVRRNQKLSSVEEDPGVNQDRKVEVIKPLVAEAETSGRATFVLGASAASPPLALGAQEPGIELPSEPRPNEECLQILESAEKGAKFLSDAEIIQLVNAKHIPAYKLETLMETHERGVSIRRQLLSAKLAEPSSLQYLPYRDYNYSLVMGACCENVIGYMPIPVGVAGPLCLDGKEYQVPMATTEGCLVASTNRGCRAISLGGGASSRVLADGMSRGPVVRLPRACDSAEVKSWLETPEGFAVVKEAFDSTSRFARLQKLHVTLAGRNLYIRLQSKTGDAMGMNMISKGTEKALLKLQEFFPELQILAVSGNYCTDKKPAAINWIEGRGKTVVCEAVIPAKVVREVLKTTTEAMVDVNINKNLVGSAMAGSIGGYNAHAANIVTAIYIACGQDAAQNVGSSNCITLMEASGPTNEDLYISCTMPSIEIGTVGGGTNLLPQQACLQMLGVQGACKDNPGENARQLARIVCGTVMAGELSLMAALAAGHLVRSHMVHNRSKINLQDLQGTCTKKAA
# Assay: intrinsic HMG-CoA reductase inhibition, in vitro protocol of J. Med. Chem., 28, p. 347-358 (1985)
# Type: biochemical
# Conditions: mevastatin assigned a value of 100; IC50 of test compound compared with that of mevastatin determined simultaneously
# Procedure: The intrinsic HMG-CoA reductase inhibition activity of the claimed compounds is measured in the in vitro protocol published in J. Med. Chem., 28, p. 347-358 (1985). […] Tabulated below for a number of the claimed compounds are relative potencies which are representative of the intrinsic HMG-CoA reductase inhibitory activities of the claimed compounds.
row,Molecule,Relative Potency
1,"6(R)-[2-[8(S)-(2-isopropylbenzoyloxy)-2(S),6(R) -dimethyl-1,2,6,7,8,8a(R)-hexahydronaphthyl-1(S)]ethyl-4(R)-hydroxy-3,4,5,6-tetrahydro-2H-pyran-2-one",173
2,"6(R)-[2-[8(S)-(2-methylbenzoyloxy) -2(S),6(R) -dimethyl-1,2,6,7,8,8a(R) -hexahydronaphthyl-1(S)]ethyl]-4(R)-hydroxy -3,4,5,6-tetrahydro-2H-pyran-2-one",67

# Second part, the molecule after the results:
row,Relative Potency,Molecule
1,87,"6(R)-[2-[8(S)-(2-trifluormethyl-benzoyloxy)-2(S),6(R)-dimethyl-1,2,6,7,8,8a(R)-hexa-hydronaphthyl-1(S)]ethyl]-4(R)-hydroxy-3,4,5,6-tetrahydro-2H-pyran-2-one"
2,54,"6(R)-[2-[8(S)-(2-methylthiobenzoyloxy)-2(S),6(R)-dimethyl-1,2,6,7,8,8a(R)- hexahydronaphthyl-1(S)]ethyl-4(R)-hydroxy-3,4,5,6-tetrahydro-2H-pyran-2-one"
3,67,Cc1ccc(C)c(C(=O)O[C@H]2C[C@@H](C)C=C3C=C[C@H](C)[C@H](CC[C@@H]4C[C@@H](O)CC(=O)O4)[C@H]32)c1
4,100,"6(R)-[2-[(8(S)-(2-chlorobenzoyloxy)-2-(S),6(R)-dimethyl-1,2,6,7,8,8a(R)-hexahydronaphthyl-1-(S)]ethyl]-4(R)-hydroxy-3,4,5,6-tetahydro-2H pyran-2-one"
